Earlier results as cited in patent US20050227989A1, “Polycyclic thiazoles as potassium ion channel modulators” (ICAgen, Inc., priority 2004, published 2005).

Biological target: SK2 subtype channels (Rattus norvegicus, UniProt P70604)
Conditions: patch clamp; cited from earlier work

Row | Compound | block of SK2 channel currents
1 | CN(C)CCCN1c2ccccc2Sc2ccc(Cl)cc21 [chlorpromazine] | block SK2 channel currents with micromolar affinity
2 | CN(C)CCC=C1c2ccccc2CCc2ccccc21 [amitriptyline] | block SK2 channel currents with micromolar affinity
